Earlier results as cited in PubChem BioAssay AID1259409 (Chemical Carcinogenesis Research Information System (CCRIS), 2018).

System: rodent chemically induced tumor inhibition, incidence and multiplicity
Assay: CCRIS tumor inhibitor studies

CC1=C(/C=C/C(C)=C/C=C/C(C)=C/C=C/C=C(C)/C=C/C=C(C)/C=C/C2=C(C)CCCC2(C)C)C(C)(C)CCC1
tumour outcome (control, treated, inhibition, significance) (Carcinogen: DIESEL EXHAUST PARTICLES, Dose [Inhibitor]: 0, 0.02% IN HIGH FAT DIET FOR DURATION OF STUDY (STUDY DURATION: 12 MO), Route [Inhibitor]: ORAL, Species: MOUSE, Strain/Sex: ICR/MALE, Target Tissue: Type of Lesion: LUNG: TUMOR, Dose [Carcinogen]: 0.1 MG 1/WK FOR 10 WK, Promoter: NONE USED): 13/30 (43%), 5/30 (17%), 60%, not calculated
tumour outcome (control, treated, inhibition, significance) (Carcinogen: DIESEL EXHAUST PARTICLES, Dose [Inhibitor]: 0, 0.02% IN HIGH FAT DIET FOR DURATION OF STUDY (STUDY DURATION: 12 MO), Route [Inhibitor]: ORAL, Species: MOUSE, Strain/Sex: ICR/MALE, Target Tissue: Type of Lesion: LUNG: TUMOR, Dose [Carcinogen]: 0.2 MG 1/WK FOR 10 WK, Promoter: NONE USED): 7/29 (24%), 11/29 (38%), -58%, not calculated
tumour outcome (control, treated, inhibition, significance) (Carcinogen: DIESEL EXHAUST PARTICLES, Dose [Inhibitor]: 0, 0.02% IN HIGH FAT DIET FOR DURATION OF STUDY (STUDY DURATION: 12 MO), Route [Inhibitor]: ORAL, Species: MOUSE, Strain/Sex: ICR/MALE, Target Tissue: Type of Lesion: LYMPHATIC SYSTEM: LYMPHOMA, Dose [Carcinogen]: 0.1 MG 1/WK FOR 10 WK, Promoter: NONE USED): 3/30 (10%), 9/30 (30%), -200%, not calculated
tumour outcome (control, treated, inhibition, significance) (Carcinogen: DIESEL EXHAUST PARTICLES, Dose [Inhibitor]: 0, 0.02% IN HIGH FAT DIET FOR DURATION OF STUDY (STUDY DURATION: 12 MO), Route [Inhibitor]: ORAL, Species: MOUSE, Strain/Sex: ICR/MALE, Target Tissue: Type of Lesion: LYMPHATIC SYSTEM: LYMPHOMA, Dose [Carcinogen]: 0.2 MG 1/WK FOR 10 WK, Promoter: NONE USED): 8/29 (28%), 4/29 (14%), 50%, not calculated
tumour outcome (control, treated, inhibition, significance) (Carcinogen: DIETHYLNITROSAMINE, 55-18-5, Dose [Inhibitor]: 0, 0.005% IN DIET FOR DURATION OF STUDY (STUDY DURATION: 13 WKS), Route [Inhibitor]: ORAL, Species: HAMSTER, Strain/Sex: SYRIAN/MALE, Target Tissue: Type of Lesion: LARYNX/TRACHEA: PAPILLOMA, Dose [Carcinogen]: 100 MG/KG BW ONCE, Promoter: CIGARETTE SMOKE): 13/28 (46%), 10/28 (36%), 22%, not significant
tumour outcome (control, treated, inhibition, significance) (Carcinogen: DIETHYLNITROSAMINE, 55-18-5, Dose [Inhibitor]: 0, 0.05% IN DIET FOR DURATION OF STUDY (STUDY DURATION: 13 WKS), Route [Inhibitor]: ORAL, Species: HAMSTER, Strain/Sex: SYRIAN/MALE, Target Tissue: Type of Lesion: LARYNX/TRACHEA: PAPILLOMA, Dose [Carcinogen]: 100 MG/KG BW ONCE, Promoter: CIGARETTE SMOKE): 13/28 (46%), 11/29 (38%), 17%, not significant
tumour outcome (control, treated, inhibition, significance) (Carcinogen: DIETHYLNITROSAMINE, 55-18-5, Dose [Inhibitor]: 0, 0.5% IN DIET FOR 10 D THEN REDUCED TO 0.25% FOR DURATION OF STUDY (STUDY DURATION: 13 WKS), Route [Inhibitor]: ORAL, Species: HAMSTER, Strain/Sex: SYRIAN/MALE, Target Tissue: Type of Lesion: LARYNX/TRACHEA: PAPILLOMA, Dose [Carcinogen]: 100 MG/KG BW ONCE, Promoter: CIGARETTE SMOKE): 13/28 (46%), 4/26 (15%), 67%, p< 0.05
tumour outcome (control, treated, inhibition, significance) (Carcinogen: DIETHYLNITROSAMINE, 55-18-5, Dose [Inhibitor]: 0, 1.5 MG 2/WK FOR 20 WK (STUDY DURATION: 25 WK), Route [Inhibitor]: SUBCUTANEOUS, Species: HAMSTER, Strain/Sex: SYRIAN/MALE, Target Tissue: Type of Lesion: LUNG: CARCINOMA, Dose [Carcinogen]: 17.8 MG/KG BW 2/WK FOR 20 WK, Promoter: NONE USED): 50%, 26%, 48%, not significant
tumour outcome (control, treated, inhibition, significance) (Carcinogen: DIETHYLNITROSAMINE, 55-18-5, Dose [Inhibitor]: 0, 1.5 MG 2/WK FOR 20 WK (STUDY DURATION: 25 WK), Route [Inhibitor]: SUBCUTANEOUS, Species: HAMSTER, Strain/Sex: SYRIAN/MALE, Target Tissue: Type of Lesion: TRACHEA: PAPILLOMA, Dose [Carcinogen]: 17.8 MG/KG BW 2/WK FOR 20 WK, Promoter: NONE USED): 95%, 100%, -5%, not significant
tumour outcome (control, treated, inhibition, significance) (Carcinogen: DIETHYLNITROSAMINE, 55-18-5, Dose [Inhibitor]: 0, 3 MG 2/WK FOR 20 WK (STUDY DURATION: 25 WK), Route [Inhibitor]: SUBCUTANEOUS, Species: HAMSTER, Strain/Sex: SYRIAN/MALE, Target Tissue: Type of Lesion: LUNG: CARCINOMA, Dose [Carcinogen]: 17.8 MG/KG BW 2/WK FOR 20 WK, Promoter: NONE USED): 60%, 30%, 50%, not significant
tumour outcome (control, treated, inhibition, significance) (Carcinogen: DIETHYLNITROSAMINE, 55-18-5, Dose [Inhibitor]: 0, 3 MG 2/WK FOR 20 WK (STUDY DURATION: 25 WK), Route [Inhibitor]: SUBCUTANEOUS, Species: HAMSTER, Strain/Sex: SYRIAN/MALE, Target Tissue: Type of Lesion: TRACHEA: PAPILLOMA, Dose [Carcinogen]: 17.8 MG/KG BW 2/WK FOR 20 WK, Promoter: NONE USED): 100%, 100%, 0%, not significant
tumour outcome (control, treated, inhibition, significance) (Carcinogen: DIMETHYLBENZ[A]ANTHRACENE, 57-97-6, Dose [Inhibitor]: 0.25 ML OF 0.015% AGENT IN ACETONE ADMINISTERED WITH PROMOTER 5/WK FOR 16 WK BEGINNING 3 WK POST CARCINOGEN DOSE (STUDY, Route [Inhibitor]: DERMAL, Species: MOUSE, Strain/Sex: ICR/FEMALE, Target Tissue: Type of Lesion: SKIN: PAPILLOMA, Dose [Carcinogen]: 0.125 MG IN 0.25 ML ACETONE ONCE, Promoter: PHENOL, 108-95-2): 7/25 (28%), 6/28 (21%), 25%, not calculated
tumour outcome (control, treated, inhibition, significance) (Carcinogen: DIMETHYLBENZ[A]ANTHRACENE, 57-97-6, Dose [Inhibitor]: 100 MG/KG OF DIET IMMEDIATELY FOLLOWING CARCINOGEN DOSE FOR 22 WK (STUDY DURATION: 22 WK), Route [Inhibitor]: ORAL, Species: RAT, Strain/Sex: SPRAGUE-DAWLEY/MALE, Target Tissue: Type of Lesion: SALIVARY GLAND: TUMOR, Dose [Carcinogen]: 1 MG IN OLIVE OIL INJECTED INTO ONE SALIVARY GLAND ONCE, Promoter: NONE USED): 3/9 (33%), 1/11 (9%), 73%, not significant
tumour outcome (control, treated, inhibition, significance) (Carcinogen: METHYL(ACETOXYMETHYL)NITROSAMINE, 56856-83-8, Dose [Inhibitor]: 0, 5.8 NMOL IN DRINKING WATER BEGINNING 2 WK PRIOR TO CARCINOGEN AND CONTINUED FOR STUDY DURATION, (STUDY DURATION: 13 M, Dose [Inhibitor]: 0, 5.8 NMOL IN DRINKING WATER BEGINNING 2 WK PRIOR TO CARCINOGEN AND CONTINUED FOR STUDY DURATION, (STUDY DURATION: 13 M, Route [Inhibitor]: ORAL, Species: HAMSTER, Strain/Sex: SYRIAN/FEMALE, Target Tissue: Type of Lesion: ORAL CAVITY: TUMOR, Dose [Carcinogen]: 2 MG/KG BW IN DISTILLED WATER TO RIGHT CHEEK POUCH 2/MO FOR 6 MO (TOTAL DOSE 24 MG/KG), Promoter: NONE USED): 14/15 (93%), 4/15 (27%), 71%, p<0.001
tumour outcome (control, treated, inhibition, significance) (Carcinogen: N-BUTYL-N-(4-HYDROXYBUTYL)NITROSAMINE, 3817-11-6, Dose [Inhibitor]: 0, 0.0025% IN DRINKING WATER FOR 12 WK BEGINNING POST CARCINOGEN TREATMENT (STUDY DURATION: 20 WK), Route [Inhibitor]: ORAL, Species: RAT, Strain/Sex: F344/MALE, Target Tissue: Type of Lesion: URINARY BLADDER: TRANSITIONAL CELL CARCINOMA, Dose [Carcinogen]: 0.05% IN DRINKING WATER FOR 8 WK, Promoter: NONE USED): 10/12 (83%), 12/12 (100%), -20%, not significant
tumour outcome (control, treated, inhibition, significance) (Carcinogen: N-BUTYL-N-(4-HYDROXYBUTYL)NITROSAMINE, 3817-11-6, Dose [Inhibitor]: 0, 0.1% IN DIET BEGINNING 5 WK PRIOR TO CARCINOGEN TREATMENT AND CONTINUING FOR DURATION OF STUDY (STUDY DURATION: 7 MO), Route [Inhibitor]: ORAL, Species: MOUSE, Strain/Sex: B6D2F1/MALE, Target Tissue: Type of Lesion: BLADDER: CARCINOMA IN SITU, Dose [Carcinogen]: 5 MG IN SALINE SOLUTION 2/WK FOR 9 WK, Promoter: NONE USED): 7/24 (29%), 3/24 (13%), 55%, not calculated
tumour outcome (control, treated, inhibition, significance) (Carcinogen: N-BUTYL-N-(4-HYDROXYBUTYL)NITROSAMINE, 3817-11-6, Dose [Inhibitor]: 0, 0.1% IN DIET BEGINNING 5 WK PRIOR TO CARCINOGEN TREATMENT AND CONTINUING FOR DURATION OF STUDY (STUDY DURATION: 7 MO), Route [Inhibitor]: ORAL, Species: MOUSE, Strain/Sex: B6D2F1/MALE, Target Tissue: Type of Lesion: BLADDER: TRANSITIONAL CELL CARCINOMA, Dose [Carcinogen]: 5 MG IN SALINE SOLUTION 2/WK FOR 9 WK, Promoter: NONE USED): 8/24 (33%), 5/24 (21%), 36%, not calculated
tumour outcome (control, treated, inhibition, significance) (Carcinogen: N-BUTYL-N-(4-HYDROXYBUTYL)NITROSAMINE, 3817-11-6, Dose [Inhibitor]: 0, 0.1% IN DIET BEGINNING 5 WK PRIOR TO CARCINOGEN TREATMENT AND CONTINUING FOR DURATION OF STUDY (STUDY DURATION: 7 MO), Route [Inhibitor]: ORAL, Species: MOUSE, Strain/Sex: B6D2F1/MALE, Target Tissue: Type of Lesion: BLADDER: TUMOR, Dose [Carcinogen]: 5 MG IN SALINE SOLUTION 2/WK FOR 9 WK, Promoter: NONE USED): 15/24 (63%), 8/24 (33%), 48%, p<0.05
